Experimental findings from PubChem BioAssay (NCI) are described below.

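Five compound concentrations were applied to cells in 96-well plates for 48 hours; endpoints were derived by simple linear interpolation of the resulting dose-response curve. The concentration for 50% growth inhibition is given as GI50. TGI marks complete inhibition of growth.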

Common to all, as to test: growth of human tumour cells (NCI), 48 h
Assay [1] deals with ACHN renal.
Assay [2] relates to HL-60(TB) leukemia.
Assay [3] deals with MALME-3M melanoma.
Assay [4] concerns OVCAR-3 ovarian.
Assay [5] deals with OVCAR-4 ovarian.
Assay [6] concerns SF-539 CNS.
In assay [7] the test system is SNB-75 CNS.
Assay [8] deals with IGROV1 ovarian.
The test system of assay [9] is U251 CNS.
Assay [10] relates to HS 578T breast.

With `COc1ccc(/C=C2\C(=O)N(C(=O)Cc3ccccc3)N=C2C)cc1OC`, the TGI in [1], in assay [2], in assay [3], in [4], in [5] and in assay [6] was more than 100 µM each time. This molecule showed a TGI in assay [7] of more than 100 µM.

For the molecule `CC(=O)O[C@@H]1C2C(=O)OC(=O)C2C2CCC[C@]23O[C@H]13` (some centres not stated), the TGI in [1], in assay [2], in assay [8], in [3], in assay [4] and in [5] was more than 100 µM each time. In addition, the TGI in assay [6], in assay [7] and in assay [9] was more than 100 µM each time.

For the molecule `Fc1cccc(Cl)c1/C=N\N=C1c2ccccc2-c2ccccc21`, the TGI in assay [1], in assay [2], in assay [10], in assay [8], in assay [3] and in assay [4] was more than 100 µM each time. Besides, the TGI in assay [5], in assay [6] and in [9] was more than 100 µM each time.

For the molecule `Cc1c2cc[n+](C)cc2c(C)c2c1[nH]c1ccc(O)c(OCC(F)(F)F)c12`, the TGI in [2] came to 13 µM; in assay [8] it was 23.1 µM; in assay [3], 8.47 µM; in assay [4] it was 7.4 µM; in [5] it was 12.8 µM; in assay [6], 9.72 µM. Moreover, the TGI in assay [7] amounted to 1.35 µM; in [9], 7 µM.

In the case of `O=[N+]([O-])c1ccc2c(c1)[O][Sn]([I])([I])[O]2`, the GI50 in assay [1], in assay [2], in [8], in assay [3], in assay [4] and in assay [5] was more than 100 µM each time. The GI50 in [6], in [7] and in assay [9] was more than 100 µM each time. Besides, the TGI in assay [1], in assay [2], in [8], in [3], in assay [4] and in assay [5] was more than 100 µM in each case. Besides, the TGI in assay [6], in assay [7] and in [9] was more than 100 µM throughout.

As for `O=c1ccc(=O)c2c(=O)c3ccccc3c(=O)c1=2`, the TGI in [1] was more than 100 µM; in assay [2] it was 70.9 µM; in assay [8], more than 100 µM; in [3], more than 100 µM; in assay [4], 55.2 µM; in assay [5], more than 100 µM. Also, the TGI in [6] was 70.9 µM; in assay [7], more than 100 µM; in assay [9], more than 100 µM.

Consider `O=C1CCC(O)=C1O`, for which the TGI in assay [1], in assay [2], in assay [8], in [3], in assay [4] and in [5] was more than 100 µM throughout. In addition, the TGI in assay [6], in assay [7] and in [9] was more than 100 µM throughout.

As for `Cc1c(Cl)cccc1NC(=O)CC1C(=O)Nc2ccccc2S1(=O)=O` (configuration not stated), the TGI worked out at 31.5 µM in assay [1]; 16 µM in assay [2]; 31.7 µM in assay [8]; 42.4 µM in assay [3]; 31.7 µM in assay [4]; 67.2 µM in assay [5]. Also, the TGI in assay [6] was determined as 28.7 µM; in [7] it was 32.5 µM; in assay [9] it was 26.5 µM.

Turning to `C/C(=N\NC(N)=S)c1nc2ccc(Cl)cc2[nH]1`, the GI50 was 0.848 µM in assay [1]; 1.55 µM in assay [2]; 12.2 µM in assay [10]; 3.06 µM in assay [8]; 2.85 µM in assay [4]; 1.31 µM in assay [5]. Further, the GI50 in assay [6] is 2.45 µM; in assay [7], 2.29 µM; in assay [9] it was 2.6 µM. Further, the TGI in assay [1] was 7.83 µM; in [2] it was 19.9 µM; in assay [10] it was more than 50 µM; in assay [8] it was 17.8 µM; in assay [4] it was 14.1 µM; in assay [5] it was 19.9 µM. Besides, the values for the TGI in assay [6], in assay [7] and in assay [9] were 9.7 µM, 15.6 µM and 13 µM, respectively.

For `COC(=O)C1=C(CS(=O)c2ccccc2[N+](=O)[O-])ON(C)C1c1ccccc1` (configuration not stated), the TGI was more than 100 µM in assay [1]; 38.6 µM in [2]; more than 100 µM in assay [8]; more than 100 µM in assay [3]; more than 100 µM in assay [4]; more than 100 µM in assay [5]. Also, the TGI was 56.2 µM in assay [6], 84.5 µM in [7] and more than 100 µM in assay [9].

For `Nc1nc(CCC(=O)Nc2cccc(C(F)(F)F)c2)cc(-c2ccc3ccccc3c2)n1`, the TGI in [1], in assay [2], in assay [8], in assay [3], in [4] and in assay [5] was more than 100 µM in each case. Moreover, the TGI in assay [6], in assay [7] and in assay [9] was more than 100 µM throughout.

Turning to `C[C-](O)O.O/C(=C\[C-](O)c1ccccc1)c1ccccc1.O/C(=C\[C-](O)c1ccccc1)c1ccccc1.[Nd+3]` (configuration not stated), the GI50 in assay [1] was 12 µM; in assay [2], 2.03 µM; in assay [8], 14.1 µM; in assay [3], 16.8 µM; in assay [4], 0.363 µM; in [5] it was 15.9 µM. For the same molecule, the GI50 was 5.5 µM in [6], 1.77 µM in assay [7] and 4.46 µM in [9]. Moreover, the TGI was more than 100 µM in [1]; 8.7 µM in assay [2]; more than 100 µM in assay [8]; 65.9 µM in [3]; 27.4 µM in assay [4]; more than 100 µM in assay [5]. For the same molecule, the TGI in [6] was determined as 25.5 µM; in [7], 6.35 µM; in assay [9], 22.1 µM.
